How the values were obtained:
[1] = Bioavailability after administration by inhalation; settings: in vivo, inhaled or intranasal; administered by inhalation as spherically nanostructured microparticles; based on the fine fraction of the formulation (FPD, USP 24 Suppl. 2000)
[2] = Stability of the amorphous state of the microparticles; assay type: physicochemical; settings: normal conditions (T<50° C., relative humidity <75%)
[3] = conventional preparations; cited from earlier work

## NCCCC[C@H](NC(=O)[C@@H](Cc1cc(Br)c(O)c(Br)c1)NC(=O)N1CCC(N2Cc3ccccc3NC2=O)CC1)C(=O)N1CCN(c2ccncc2)CC1 [BIBN4096, 1-[N^2-[3,5-dibromo-N-[[4-(3,4-dihydro-2(1H)-oxoquinazolin-3-yl)-1-piperidinyl]carbonyl]-D-tyrosyl]-L-lysyl]-4-(4-pyridinyl)-piperazine]
[1]
  bioavailability: ~60%
[2]
  stability of amorphous state: stable in their amorphous state
[3]
  bioavailability by oral route: only limited bioavailability by oral route

Source: patent US20080038357A1, “Inhalation Powder Containing the CGRP antagonist BIBN4096 and Process for the Preparation Thereof” (priority 2002, published 2008)
